Structures can show the parent of a compound that is named as a salt.

Data on 29 molecules can be found in US8110571B2, “Benzimidazole and benzothiazole derivatives, method for preparing same, use thereof as drugs, pharmaceutical compositions and novel use especially as c-MET inhibitors” (Aventis Pharma S.A., priority 2005, dated 2012).

Usually melting point stands for the temperature of the solid-liquid transition. The molecule `O=C(CCC1CCNCC1)Nc1nc2ccc(OS(=O)(=O)c3c(Cl)cccc3Cl)cc2s1` (as salt: benzenesulfonate) [Example 47, 2-[(3-Piperidin-4-ylpropanoyl)amino]-1,3-benzothiazol-6-yl 2,6-dichlorobenzenesulfonate] gave a melting point of 134 °C.
The molecule `O=C(Nc1nc2ccc(OS(=O)(=O)c3c(Cl)cccc3Cl)cc2s1)N1CCC[C@H]1CN1CCCC1` (as salt: benzenesulfonate) [Example 58, 2-({[(2S)-2-(pyrrolidin-1-ylmethyl)pyrrolidin-1-yl]carbonyl}amino)-1,3-benzothiazol-6-yl 2,6-dichlorobenzenesulfonate] returned a melting point of 210 °C.
For `O=C(Nc1nc2ccc(OS(=O)(=O)c3c(Cl)cccc3Cl)cc2s1)NC1CC1` (as salt: benzenesulfonate) [Example 31, 2-[(Cyclopropylcarbamoyl)amino]-1,3-benzothiazol-6-yl 2,6-dichlorobenzenesulfonate] the value was 128 °C; for `O=C(NCCC1CCNCC1)Nc1nc2cc(OS(=O)(=O)c3c(Cl)cccc3Cl)ccc2[nH]1` (as salt: benzenesulfonate) [Example 22, 2-{[(2-Piperidin-4-ylethyl)carbamoyl]amino}-1H-benzimidazol-5-yl 2,6-dichlorobenzenesulfonate], 165 °C.
For the molecule `O=C(NCCCN1CCCC1=O)Nc1nc2ccc(OS(=O)(=O)c3c(Cl)cccc3Cl)cc2s1` (as salt: benzenesulfonate) [Example 65, 2-({[3-(2-oxopyrrolidin-1-yl)propyl]carbamoyl}amino)-1,3-benzothiazol-6-yl 2,6-dichlorobenzenesulfonate], the melting point stood at 195 °C.
As to `O=C(NCc1ccccc1)Nc1nc2cc(OS(=O)(=O)c3c(Cl)cccc3Cl)ccc2[nH]1` (as salt: benzenesulfonate) [Example 18, 2-[(Benzylcarbamoyl)amino]-1H-benzimidazol-5-yl 2,6-dichlorobenzenesulfonate], the melting point amounted to 195 °C.
The molecule `CN1CCN(CCNC(=O)Nc2nc3cc(OS(=O)(=O)c4c(Cl)cccc4Cl)ccc3[nH]2)CC1` (as salt: benzenesulfonate) [Example 20, 2-({[2-(4-Methylpiperazin-1-yl)ethyl]carbamoyl}amino)-1H-benzimidazol-5-yl 2,6-dichlorobenzenesulfonate] displayed a melting point of 180 °C.
The molecule `O=C(NCCCN1CCOCC1)Nc1nc2ccc(OS(=O)(=O)c3c(Cl)cccc3Cl)cc2s1` (as salt: benzenesulfonate) [Example 53, 2-{[(3-morpholin-4-ylpropyl)carbamoyl]amino}-1,3-benzothiazol-6-yl 2,6-dichlorobenzenesulfonate] yielded a melting point of 94 °C.
For the molecule `O=C(CCC1CCNCC1)Nc1nc2cc(OS(=O)(=O)c3c(Cl)cccc3Cl)ccc2[nH]1` (as salt: benzenesulfonate) [Example 27, 2-[(3-Piperidin-4-ylpropanoyl)amino]-1H-benzimidazol-5-yl 2,6-dichlorobenzenesulfonate], the melting point was 135 °C.
`O=C(NCCN1CCOCC1)Nc1nc2ccc(OS(=O)(=O)c3ccccc3Cl)cc2s1` (as salt: benzenesulfonate) [Example 40, 2-{[(2-Morpholin-4-ylethyl)carbamoyl]amino}-1,3-benzothiazol-6-yl 2-chlorobenzenesulfonate]: the melting point is 100 °C.
For `O=C(NCCN1CCC(Cc2ccccc2)CC1)Nc1nc2ccc(OS(=O)(=O)c3c(Cl)cccc3Cl)cc2s1` (as salt: benzenesulfonate) [Example 55, 2-({[2-(4-benzylpiperidin-1-yl)ethyl]carbamoyl}amino)-1,3-benzothiazol-6-yl 2,6-dichlorobenzenesulfonate], the melting point turned out to be 95 °C.
In turn, `O=C(Cc1cccnc1)Nc1nc2ccc(OS(=O)(=O)c3c(Cl)cccc3Cl)cc2s1` (as salt: benzenesulfonate) [Example 45, 2-[(Pyridin-3-ylacetyl)amino]-1,3-benzothiazol-6-yl 2,6-dichlorobenzenesulfonate] had a melting point of 218 °C.
`O=C(NCc1cccnc1)Nc1nc2cc(OS(=O)(=O)c3c(Cl)cccc3Cl)ccc2[nH]1` (as salt: benzenesulfonate) [Example 16, 2-{[(Pyridin-3-ylmethyl)carbamoyl]amino}-1H-benzimidazol-5-yl 2,6-dichlorobenzenesulfonate] came in with a melting point of 210 °C.
For `O=C(NCCCN1CCN(Cc2ccccc2)CC1)Nc1nc2ccc(OS(=O)(=O)c3c(Cl)cccc3Cl)cc2s1` (as salt: benzenesulfonate) [Example 68, 2-({[3-(4-benzylpiperazin-1-yl)propyl]carbamoyl}amino)-1,3-benzothiazol-6-yl 2,6-dichlorobenzenesulfonate], the melting point turned out to be 218 °C.
In the case of `CC1CCCC(C)N1CCNC(=O)Nc1nc2ccc(OS(=O)(=O)c3c(Cl)cccc3Cl)cc2s1` (centres unmarked) (as salt: benzenesulfonate) [Example 63, 2-({[2-(2,6-dimethylpiperidin-1-yl)ethyl]carbamoyl}amino)-1,3-benzothiazol-6-yl 2,6-dichlorobenzenesulfonate], the melting point was determined as 122 °C.
`COCCNC(=O)Nc1nc2cc(OS(=O)(=O)c3c(C)cc(C)cc3C)ccc2[nH]1` (as salt: benzenesulfonate) [Example 3, 2-{[(2-Methoxyethyl)carbamoyl]amino}-1H-benzimidazol-5-yl 2,4,6-trimethylbenzenesulfonate] came in with a melting point of 140 °C.
`O=C(NCCC1CCNCC1)Nc1nc2ccc(OS(=O)(=O)c3c(Cl)cccc3Cl)cc2s1` (as salt: trifluoroacetic acid salt) [Example 35, 2-{[(2-Piperidin-4-ylethyl)carbamoyl]amino}-1,3-benzothiazol-6-yl 2,6-dichlorobenzenesulfonate]: the melting point was found to be 240 °C.
`COCCNC(=O)Nc1nc2cc(OS(=O)(=O)c3c(Cl)cccc3Cl)ccc2[nH]1` (as salt: benzenesulfonate) [Example 1, 2-{[(2-methoxyethyl)carbamoyl]amino}-1H-benzimidazol-5-yl 2,6-dichlorobenzenesulfonate] displayed a melting point of 171 °C.
As for `O=C(NCCC1CCN(Cc2ccccc2)CC1)Nc1nc2ccc(OS(=O)(=O)c3c(Cl)cccc3Cl)cc2s1` (as salt: benzenesulfonate) [Example 33, 2-({[2-(1-Benzylpiperidin-4-yl)ethyl]carbamoyl}amino)-1,3-benzothiazol-6-yl 2,6-dichlorobenzenesulfonate], the figure is 105 °C; as for `O=C(Nc1nc2ccc(OS(=O)(=O)c3c(Cl)cccc3Cl)cc2s1)NC1CCCCCC1` (as salt: benzenesulfonate) [Example 72, 2-[(cycloheptylcarbamoyl)amino]-1,3-benzothiazol-6-yl 2,6-dichlorobenzenesulfonate], 163 °C.
As for `O=C(Nc1nc2ccc(OS(=O)(=O)c3c(Cl)cccc3Cl)cc2s1)NC1CCCC1` (as salt: benzenesulfonate) [Example 73, 2-[(cyclopentylcarbamoyl)amino]-1,3-benzothiazol-6-yl 2,6-dichlorobenzenesulfonate], the figure is 249 °C; as for `CN1CCN(c2ccc(CNC(=O)Nc3nc4ccc(OS(=O)(=O)c5c(Cl)cccc5Cl)cc4s3)cc2)CC1` (as salt: benzene-sulfonate) [Example 52, 2-({[4-(4-methylpiperazin-1-yl)benzyl]carbamoyl}amino)-1,3-benzothiazol-6-yl 2,6-dichlorobenzene-sulfonate], 88 °C; as for `O=C(CCCC1CCNCC1)Nc1nc2ccc(OS(=O)(=O)c3c(Cl)cccc3Cl)cc2s1` (as salt: benzenesulfonate) [Example 48, 2-[(4-Piperidin-4-ylbutanoyl)amino]-1,3-benzothiazol-6-yl 2,6-dichlorobenzenesulfonate], 114 °C.
The molecule `O=C(NCCN1CCCC1)Nc1nc2ccc(OS(=O)(=O)c3c(Cl)cccc3Cl)cc2s1` (as salt: benzenesulfonate) [Example 56, 2-{[(2-pyrrolidin-1-ylethyl)carbamoyl]amino}-1,3-benzothiazol-6-yl 2,6-dichlorobenzenesulfonate] returned a melting point of 99 °C.
As for `O=C(NCCCN1CCCC1)Nc1nc2ccc(OS(=O)(=O)c3c(Cl)cccc3Cl)cc2s1` (as salt: benzenesulfonate) [Example 59, 2-{[(3-pyrrolidin-1-ylpropyl)carbamoyl]amino}-1,3-benzothiazol-6-yl 2,6-dichlorobenzenesulfonate], the figure is 96 °C.
As for `COCCNC(=O)Nc1nc2cc(OS(=O)(=O)c3c(C)cccc3Cl)ccc2[nH]1` (as salt: benzenesulfonate) [Example 2, 2-{[(2-Methoxyethyl)carbamoyl]amino}-1H-benzimidazol-5-yl 2-chloro-6-methylbenzenesulfonate], the figure is 138 °C; as for `CN1CCCC1CCNC(=O)Nc1nc2ccc(OS(=O)(=O)c3c(Cl)cccc3Cl)cc2s1` (centres unmarked) (as salt: benzenesulfonate) [Example 61, 2-({[2-(1-methylpyrrolidin-2-yl)ethyl]carbamoyl}amino)-1,3-benzothiazol-6-yl 2,6-dichlorobenzenesulfonate], 178 °C.
The molecule `O=C(Nc1nc2cc(OS(=O)(=O)c3c(Cl)cccc3Cl)ccc2[nH]1)C1CC1` (as salt: benzenesulfonate) [Example 24, 2-[(Cyclopropylcarbonyl)amino]-1H-benzimidazol-5-yl 2,6-dichlorobenzenesulfonate] returned a melting point of 242 °C.
Consider `O=C(Nc1nc2ccc(OS(=O)(=O)c3c(Cl)cccc3Cl)cc2s1)N1CCC[C@@H]1CN1CCCC1` (as salt: benzenesulfonate) [Example 57, 2-({[(2R)-2-(pyrrolidin-1-ylmethyl)pyrrolidin-1-yl]carbonyl}amino)-1,3-benzothiazol-6-yl 2,6-dichlorobenzenesulfonate], for which the melting point came out at 204 °C.
